Reference: US10092644B2, “Use of fluorinated cyclic dinucleotides as oral vaccine adjuvants” (BROCK UNIVERSITY, priority 2013, dated 2018)

Columns and labels:
[1] = system: recombinant PsaA protein of S. pneumoniae; experiment: Intranasal immunization of mice with PsaA admixed with adjuvant; ELISA for PsaA-specific IgA and IgG isotypes; type: in vivo, BALB/c mice
From the text: Mice. Six to eight-week-old female BALB/c or C57BL/6 mice were purchased from Charles Rivers Laboratories (St. Constant, Quebec). The animals were housed under specific-pathogen-free conditions in a federally licensed small animal containment level 2 facility, and given free access to sterile water and certified mouse chow. The animals were maintained and used in accordance with the recommendations of the Canadian Council on Animal Care Guide to the Care and Use of Experimental Animals, and the experimental procedures were approved by the institutional animal care committee.
(§1) Intranasal or oral immunization in mice. For intranasal immunization, mice were lightly anesthetized under isofluorane. On day 0, 14 and 21, groups of mice (n=5) were inoculated with 50 μl of various vaccine preparations or controls as detailed in Examples 1-5. For oral immunization, various vaccine preparations or controls in 0.2 ml volume were administered by gavage via an 18-gauge feeding needle.
At day 28, blood and mucosal samples (fecal pellets or/and vaginal wash) were collected as described elsewhere (Patel G B, Zhou H, Ponce A, Chen W (2007). Mucosal and systemic immune responses by intranasal immunization using archaeal lipid-adjuvanted vaccines. Vaccine 25: 8622-8636.). In some experiments, nasal wash samples were also collected at the end of experiment. For both the vaginal and nasal wash, the volume of the lavage fluid recovered from each mouse was recorded. Since the recovery of lavage volumes among different mice in our study were very similar (about 90%), the small variation among individual samples was not adjusted. All samples were stored at −20° C. until assay.
Vaginal wash samples were collected by slowly injecting and withdrawing (3-4 times) 50 μl PBS (pH 7.2) into the vagina of conscious mice, using a P100 pipette. The volume of the vaginal lavage fluid recovered from each mouse was recorded.
Enzyme-linked immunosorbent assay (ELISA) for PsaA-specific IgA and IgG isotypes. Levels of PsaA-specific antibodies in serum and mucosal samples were measured by an enzyme-linked immunosorbent assay (ELISA) modified from a previously described procedure (Yan H, Kuo Lee R, Tram K, Qiu H, Zhang J, Patel G B, Chen W. 3′,5′-Cyclic diguanylic acid elicits mucosal immunity against bacterial infection. Biochemical and Biophysical Research Communications, 2009; 387(3):581-4.). Briefly, 96-well Immunolon 2^R microplates (Thermo Electron Corporation, Milford, Mass.) were coated with 0.5 μg PsaA/well in 100 μl of 0.015 M sodium carbonate and 0.035 M sodium bicarbonate buffer (pH 9.6) at 4° C. overnight. All the subsequent incubations were carried out at room temperature. The wells were blocked by incubation with 5% bovine serum in PBS for 1 h, and then rinsed three times with PBS-0.05% Tween 20. Duplicates of 100 μl pre-diluted samples were added to the wells. Sample dilutions were as follows: 1:2 for fecal extracts and nasal washes, 1:2000 for serum IgG1, 1:500 for serum IgG2a and 1:50 for serum IgA. After the plates were incubated for 3 h, alkaline phosphatase-conjugated goat antibodies specific for mouse IgA, IgG1 and IgG2a (all from Caltag Laboratories, Burlingame, Calif.) were added and incubated for 1 h. Color reactions were developed by the addition of p-nitrophenyl phosphate (pNPP) substrate (KPL, Inc., Gaithersburg, Md.), and optical density was measured at 405 nm with an automated ELISA plate reader (Multiskan Ascent, Thermo Labsystems, Vantaa, Finland). Pooled samples collected from mice that had been intranasally immunized with the PsaA+CT or from the naïve mice were used as positive or negative controls respectively.
To determine if 2′-F-c-di-GMP can elicit mucosal immune responses to microbial (bacterial and viral) antigens, groups of BALB/c mice were intranasally (i.n.) immunized with 2 μg recombinant PsaA protein of S. pneumoniae admixed with 2.5 μg 2′-F-c-di-GMP, 2.5 μg c-di-GMP, or 10 μg c-di-GMP at day 0, 14 and 21. […]

C. difficile flagellin = experiment: Oral immunization with C. difficile flagellin admixed with adjuvant; ELISA for flagellin-specific antibodies; type: in vivo, BALB/c mice; settings: day 35
H. pylori SS1 = experiment: Mouse model of H. pylori gastric colonization after oral immunization; type: in vivo, mice
[2] = system: H. pylori cell-free sonicate extract (HPCE); parameters: species or system C57BL/6 mice; settings: mouse, in vivo, po
Listeria flagellin = experiment: Oral immunization with Listeria flagellin admixed with adjuvant; ELISA for flagellin-specific antibodies; type: in vivo, BALB/c mice; settings: day 35
S. pneumoniae = experiment: Mouse S. pneumoniae nasopharyngeal colonization model after intranasal immunization; type: in vivo, mice
Protocol: as §1
Intranasal challenge of mice with S. pneumoniae. Fresh inocula were prepared for each experiment from a frozen stock of S. pneumoniae (type 14). […] The actual inoculum concentrations were determined by plating 10-fold serial dilutions on chocolate agar. Inoculated mice were sacrificed 3 days later and the nasal cavity was lavaged with 0.5 ml lavage fluid and aliquots (100 μl) of 10-fold serial dilutions of the lavage fluids were cultured, in duplicates, on chocolate agar plates to quantify the number of viable organisms.
Next, it was determined if the mucosal immune responses induced by the 2′-F-c-di-GMP adjuvanted vaccine are protective against mucosal infections in the well-established mouse S. pneumoniae colonization model. […] Mice were sacrificed 3 days after challenge, and the nasopharyngeal tract was lavaged and bacterial numbers in the nasal wash were determined.

[3] = system: splenocytes stimulated by HPCE; settings: mouse, in vivo, po
[4] = system: pneumococcal surface adhesion A (Psa); settings: mice, intranasally, Psa together with c-di-GMP (Yan et al. 2009); cited from earlier work
[5] = i.n. 2 μg PsaA admixed with 2.5 μg adjuvant at day 0, 14 and 21, samples day 28, FIG. 1
[6] = i.n. with 2 μg PsaA, comparator 2.5 μg or 10 μg c-di-GMP
[7] = oral 30 μg C. difficile flagellin + 75 μg adjuvant
[8] = oral 50 μg Listeria flagellin + 75 μg adjuvant

## 2′-F-c-di-GMP
[1]; [5]
  PsaA-specific IgA in feces: high level
  PsaA-specific IgA in nasal wash: high level
  PsaA-specific IgA in serum: high level
  PsaA-specific serum IgG1 level: high level
  PsaA-specific serum IgG2a level: high level
[1]; [6]
  IgG2a response in the serum compared to parental c-di-GMP: stronger
  antigen-specific IgA response in feces compared to parental c-di-GMP: stronger
  antigen-specific IgA response in vaginal washings compared to parental c-di-GMP: stronger
C. difficile flagellin; [7]
  IgG1 response in the serum compared with sham-immunized mice: substantially higher
  IgG2a response in the serum compared with sham-immunized mice: substantially higher
  antigen-specific IgA response in feces compared with sham-immunized mice: substantially higher
C. difficile flagellin; oral 30 μg C. difficile flagellin admixed with 75 μg adjuvant day 0, 14, 21, FIG. 6
  C. difficile flagellin-specific IgA in feces: substantial amount
H. pylori SS1; HPCE+2′-F-c-di-GMP vs HPCE+CT, oral
  magnitude of reduction of H. pylori colonization relative to HPCE adjuvanted with CT: comparable
H. pylori SS1; both low or high doses of HPCE + 2′-F-c-di-GMP, oral
  bacterial burdens in the gastric mucosa compared to sham (PBS)-immunized mice: significantly reduced bacterial burdens
H. pylori SS1; oral immunization, oral challenge 10^8 CFU H. pylori SS1 three times from day 35, stomach 6 weeks after first challenge, P<0.05 for adjuvanted group, FIG. 5
  gastric colonization of H. pylori compared to sham-immunized mice: significantly reduced colonization
[2]
  IgG2a response in the serum compared with sham-immunized mice: substantially higher
  antigen-specific IgA level in feces: substantial amount
  antigen-specific IgA level in serum: substantial amount
  antigen-specific IgA response in feces compared with sham-immunized mice: substantially higher
  antigen-specific serum IgG1 level: substantial amount
  antigen-specific serum IgG2a level: substantial amount
Listeria flagellin; [8]
  IgG1 response in the serum compared with sham-immunized mice: substantially higher
  IgG2a response in the serum compared with sham-immunized mice: substantially higher
  antigen-specific IgA response in feces compared with sham-immunized mice: substantially higher
Listeria flagellin; oral 50 μg Listeria flagellin admixed with 75 μg adjuvant day 0, 14, 21, FIG. 6
  Listeria flagellin-specific IgA in feces: small amount
S. pneumoniae; PsaA+2′-F-c-di-GMP i.n., PsaA+CT data from Yan et al. 2009
  magnitude of reduction of S. pneumoniae colonization relative to PsaA+CT immunized mice: comparable
S. pneumoniae; i.n. immunization, i.n. challenge 4.55×10^6 CFU at day 35, nasal wash bacterial numbers 3 days after challenge, P<0.05 for adjuvanted group, FIG. 2
  nasopharyngeal colonization of S. pneumoniae compared to sham-immunized mice: significantly reduced colonization
[3]
  IFN-γ produced by splenocytes compared to cells from CT-immunized mice: even higher
  IFN-γ produced by splenocytes compared to sham-immunized mice: substantially higher
  IL-2 produced by splenocytes compared to sham-immunized mice: substantially higher
  IL-17 produced by splenocytes compared to sham-immunized mice: substantially higher

## Nc1nc2c(ncn2C2OC3COP(=O)(O)OC4C(COP(=O)(O)OC3C2O)OC(n2cnc3c(=O)[nH]c(N)nc32)C4O)c(=O)[nH]1 (centres unmarked) [c-di-GMP, 3′,5′-cyclic diguanylic acid]
[4]
  antigen specific antibody response: enhanced
